Experimental data: ChEMBL document CHEMBL5674877, “PRMT5: A novel regulator of Hepatitis B virus replication and an arginine methylase of HBV core” (PLoS One, 2017)

Key:
Assay type in all cases: cell-based
[1] = molecular target: Protein arginine N-methyltransferase 5 (Homo sapiens) (UniProt O14744); assay: Inhibition of PRMT5 in human HepG2_hNTCP cells transfected with constant amounts of HBc-HA assessed as reduction in symmetric arginine dimethylation of HBc at 0.5 to 500 nM incubated for 72 hrs by Western blot analysis; conditions: HepG2-hNTCP, dose 0.5-500 nM
Sequence of Protein arginine N-methyltransferase 5 (Homo sapiens) (O14744 whole entry): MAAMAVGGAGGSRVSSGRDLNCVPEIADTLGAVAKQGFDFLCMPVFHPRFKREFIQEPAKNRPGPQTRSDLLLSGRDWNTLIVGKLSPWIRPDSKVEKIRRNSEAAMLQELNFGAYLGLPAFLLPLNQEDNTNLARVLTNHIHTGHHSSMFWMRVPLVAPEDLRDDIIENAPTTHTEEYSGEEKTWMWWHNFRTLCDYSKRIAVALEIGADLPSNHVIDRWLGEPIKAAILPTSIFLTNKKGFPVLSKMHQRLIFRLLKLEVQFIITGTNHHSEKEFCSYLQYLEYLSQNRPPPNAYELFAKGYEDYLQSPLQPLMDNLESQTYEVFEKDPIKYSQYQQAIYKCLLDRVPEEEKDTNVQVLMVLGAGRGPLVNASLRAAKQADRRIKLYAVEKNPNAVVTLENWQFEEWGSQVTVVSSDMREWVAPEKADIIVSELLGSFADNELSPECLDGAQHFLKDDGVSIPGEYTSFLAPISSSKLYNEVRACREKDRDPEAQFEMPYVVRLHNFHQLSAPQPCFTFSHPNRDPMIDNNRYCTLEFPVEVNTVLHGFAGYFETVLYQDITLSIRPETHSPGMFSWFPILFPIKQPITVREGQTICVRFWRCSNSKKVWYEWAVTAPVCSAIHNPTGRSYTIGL

[2] = molecular target: Protein arginine N-methyltransferase 5 (Homo sapiens) (UniProt O14744); assay: Inhibition of PRMT5 in human HepG2_hNTCP cells transfected with constant amounts of HBc-HA assessed as decrease in intensity of methylation of SmB/B' at 0.5 to 500 nM incubated for 72 hrs by Western blot analysis; conditions: HepG2-hNTCP, dose 0.5-500 nM
[3] = molecular target: Protein arginine N-methyltransferase 5 (Homo sapiens) (UniProt O14744); assay: Inhibition of PRMT5 in human HepG2_hNTCP cells transfected with constant amounts of HBc-HA assessed as decrease in intensity of methylation of SmD3 at 0.5 to 500 nM incubated for 72 hrs by Western blot analysis; conditions: HepG2-hNTCP, dose 0.5-500 nM
[4] = molecular target: Protein arginine N-methyltransferase 5 (Homo sapiens) (UniProt O14744); assay: Inhibition of PRMT5 in human HepG2_hNTCP cells transfected with constant amounts of HBc-HA assessed as reduction in symmetric arginine dimethylation of HBc at 5 nM incubated for 72 hrs by Western blot analysis relative to control; conditions: HepG2-hNTCP

- inhibition [1]: Dose-Dependent Effect
- inhibition [2]: Dose-Dependent Effect
- inhibition [3]: Dose-Dependent Effect
- fold change (FC) [4]: 0.5
Compound: O=C(NC[C@H](O)CN1CCc2ccccc2C1)c1ccnc(NC2CCC2)c1
